Assay [1] relates to non-small cell lung cancer cell line H460. In words: H460 proliferation assay in the presence of 3 uM ASP9521 (AKR1C3 specific inhibitor). The conditions noted are these: H460 cells, CellTiter-Glo, 72 hours, in the presence of 3 uM ASP9521 added 4 hours prior to compounds; read-out: CTG H460: Avg IC50 (nM) [Assay Condition: ASP9521]. The assay is classed as cell-based, human. An outline of the steps:
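H460 cells pre-incubated 24 h, then exposed to compounds for 72 h at 37 °C, 5% CO2. Viability read by CellTiter-Glo. ASP9521 (3 uM, AKR1C3 inhibitor) added 4 h before compounds.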
On the technique in general: In ATP-based viability assays light output follows the ATP content of the culture.

For assay [2] the test system is unchanged. In words: In vitro human cancer cell line cytotoxicity (proliferation) assay in H460, CellTiter-Glo, 72 hours. To be noted: H460 cells, DMSO condition (no AKR1C3 inhibitor), read-out: CTG H460: Avg IC50 (nM) [Assay Condition: DMSO]. It counts as cell-based. An outline of the steps:
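H460 cells were seeded at 3×10^3 per well and grown 24 h at 37 °C, 5% CO2 before compound addition from 10 mM DMSO stocks. After 72 h further incubation, viability was measured by CellTiter-Glo, and IC50 values in nM were derived from the proliferation data.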

From US20260167656A1, “PHOSPHORAMIDATE COMPOUNDS AND USES THEREOF” (ALLORION THERAPEUTICS INC, priority 2022, published 2026) come the findings set out here.

With `Cn1cccc(-c2ccc(Oc3c([N+](=O)[O-])ccc4c3CCC4OP(=O)(N3CC3)N3CC3)cc2)c1=O` (stereo not drawn) [Example 49], the IC50 in assay [1] is 920 nM; in assay [2], under 10 nM.

On to `O=[N+]([O-])c1ccc2c(c1Oc1ccc(F)c(-c3ncns3)c1)CC[C@@H]2OP(=O)(N1CC1)N1CC1` [Example 347], for which the IC50 in assay [1] was 1300 nM; in assay [2] (Homo sapiens, NCI-H460, 72 h), under 10 nM.

Take `O=[N+]([O-])c1ccc2c(c1Oc1cccc(OCC3CC3)c1)CCC2OP(=O)(N1CC1)N1CC1` (stereo not drawn) [Example 482]: the IC50 in assay [1] was 1340 nM; in assay [2] it was under 10 nM.

With `Cn1nnc(-c2cc(Oc3c([N+](=O)[O-])ccc4c3CC[C@@H]4OP(=O)(N3CC3)N3CC3)ccc2F)n1` [Example 355], the IC50 was 1130 nM in assay [1] and under 10 nM in assay [2] (Homo sapiens, NCI-H460, 72 h).

For the compound `O=C(NC1CC1)c1ccc(Oc2cc3c(cc2[N+](=O)[O-])CCC3OP(=O)(N2CC2)N2CC2)cc1` (single isomer, unassigned) [Example 172], the IC50 was 4900 nM in assay [1] and 10 to 50 nM in assay [2] (Homo sapiens, NCI-H460, 72 h).

With `O=[N+]([O-])c1ccc2c(c1Oc1ccc(F)c(Br)c1)CCC2OP(=O)(N1CC1)N1CC1` (stereo not drawn) [Example 510], the IC50 in assay [1] is 535 nM; in assay [2], under 10 nM.

For `O=[N+]([O-])c1ccc2c(c1Oc1cccc(-c3ncccn3)c1)CCC2OP(=O)(N1CC1)N1CC1` (stereo not drawn) [Example 85], the concentration for half-maximal inhibition (IC50) in assay [1] is 5280 nM; in assay [2], under 10 nM.

For `CN1Cc2cc(Oc3c([N+](=O)[O-])ccc4c3CCC4OP(=O)(N3CC3)N3CC3)ccc2C1=O` (single isomer, unassigned) [Example 43], the figures for the IC50 in assay [1] and in assay [2] were 314 nM and under 10 nM, respectively.

On to `COc1cc(Oc2c([N+](=O)[O-])ccc3c2CC[C@@H]3OP(=O)(N2CC2)N2CC2)cc(-c2ncc(F)cn2)c1` [Example 365], for which the half-maximal inhibitory concentration (IC50) is 1320 nM in assay [1] and under 10 nM in assay [2] (Homo sapiens, NCI-H460, 72 h).

As to `O=[N+]([O-])c1ccc2c(c1Oc1ccc(-c3ccc(F)cc3)cc1)OCCC2OP(=O)(N1CC1)N1CC1` (stereo not drawn) [Example 133], the values for the IC50 in assay [1] and in assay [2] were 1620 nM and 10 to 50 nM, respectively.

Turning to `O=[N+]([O-])c1ccc2c(c1Oc1ccc(F)c(-c3ncc(F)cn3)c1)CCC2OP(=O)(N1CC1)N1CC1` (stereo not drawn) [Example 329], the IC50 in assay [1] is 2440 nM; in assay [2], under 10 nM.

For the compound `O=[N+]([O-])c1ccc2c(c1Oc1ccc(-c3ccc(Cl)cc3)cc1)CCC2OP(=O)(N1CC1)N1CC1` (stereo not drawn) [Example 44], the values for the IC50 in assay [1] and in assay [2] were 1940 nM and at least 100 nM, respectively.

Consider `C[C@@H]1CN(C(=O)c2cccc(Oc3c([N+](=O)[O-])ccc4c3CC[C@H]4OP(=O)(N3CC3)N3CC3)c2)C[C@H](C)O1` [Example 248], for which the concentration for half-maximal inhibition (IC50) in assay [1] was 1650 nM; in assay [2] it was under 10 nM.

Turning to `Cn1cnc(-c2cccc(Oc3c([N+](=O)[O-])ccc4c3CCC4OP(=O)(N3CC3)N3CC3)c2)cc1=O` (stereo not drawn) [Example 117], the IC50 in assay [1] is 1030 nM; in assay [2], at least 100 nM.

For the compound `O=[N+]([O-])c1ccc2c(c1Oc1ccc(-c3ccccc3)nc1)CCC2OP(=O)(N1CC1)N1CC1` (stereo not drawn) [Example 50], the IC50 in assay [1] was 335 nM; in assay [2] (Homo sapiens, NCI-H460, 72 h) it was under 10 nM.

`O=[N+]([O-])c1ccc2c(c1Oc1ccc(F)c(-c3ccccc3)c1)CC[C@@H]2OP(=O)(N1CC1)N1CC1` [Example 314]: the half-inhibitory concentration (IC50) in assay [1] is 1590 nM; in assay [2] (Homo sapiens, NCI-H460, 72 h), under 10 nM.

On to `CN(C)C(=O)c1ccc(Oc2c([N+](=O)[O-])ccc3c2CCC3OP(=O)(N2CC2)N2CC2)cc1` (single isomer, unassigned) [Example 18], for which the IC50 was 501 nM in assay [1] and under 10 nM in assay [2].

For `CC(OP(=O)(N1CC1)N1CC1)c1cc2cc(Oc3cccc(C(=O)N4CCC(F)(F)CC4)c3)c([N+](=O)[O-])cc2o1` (stereo not drawn) [Example 548], the values for the 50% inhibitory concentration (IC50) in assay [1] and in assay [2] were 2140 nM and under 10 nM, respectively.

For the compound `O=[N+]([O-])c1ccc2c(c1Oc1cc(F)cc(OCC3CC3)c1)CC[C@@H]2OP(=O)(N1CC1)N1CC1` [Example 503], the concentration for half-maximal inhibition (IC50) in assay [1] was 1660 nM; in assay [2] (Homo sapiens, NCI-H460, 72 h) it was under 10 nM.

Consider `O=[N+]([O-])c1ccc2c(c1Oc1ccc(F)c(-n3ccc(F)n3)c1)CC[C@@H]2OP(=O)(N1CC1)N1CC1` [Example 442], for which the IC50 is 667 nM in assay [1] and under 10 nM in assay [2] (Homo sapiens, NCI-H460, 72 h).

As to `CC(OP(=O)(N1CC1)N1CC1)c1ccc([N+](=O)[O-])c(COc2ccc(C(=O)N(C)C)cn2)c1` (stereo not drawn) [Example 7], the IC50 in assay [1] is 3950 nM; in assay [2] (Homo sapiens, NCI-H460, 72 h) it was 10 to 50 nM.

Take `Cn1cc(Oc2c([N+](=O)[O-])ccc3c2CCC3OP(=O)(N2CC2)N2CC2)ccc1=O` (stereo not drawn) [Example 509]: the IC50 in assay [1] was 844 nM; in assay [2] it was under 10 nM.

On to `C[C@@H]1CN1P(=O)(OC(c1ccc([N+](=O)[O-])c(Oc2cccc(C(=O)N(C)C)c2)c1)C(F)(F)F)N1C[C@H]1C` (stereo partly drawn) [Example 228], for which the IC50 in assay [1] was over 10000 nM; in assay [2] it was 10 to 50 nM.

Turning to `Cc1csc(-c2cccc(Oc3c([N+](=O)[O-])ccc4c3CC[C@@H]4OP(=O)(N3CC3)N3CC3)c2)n1` [Example 343], the IC50 in assay [1] is 2300 nM; in assay [2] (Homo sapiens, NCI-H460, 72 h), under 10 nM.

For `Cn1c(=O)oc2ccc(Oc3c([N+](=O)[O-])ccc4c3CCC4OP(=O)(N3CC3)N3CC3)cc21` (single isomer, unassigned) [Example 65], the IC50 was 279 nM in assay [1] and under 10 nM in assay [2].

As for `CN(C)C(=O)c1ccc(Oc2cc3c(cc2[N+](=O)[O-])CCC3OP(=O)(N2CC2)N2CC2)cc1` (single isomer, unassigned) [Example 141], the figures for the IC50 in assay [1] and in assay [2] were 366 nM and under 10 nM, respectively.

In the case of `O=[N+]([O-])c1ccc2c(c1Oc1ccc(F)c(OC3CCCC3)c1)CCC2OP(=O)(N1CC1)N1CC1` (stereo not drawn) [Example 479], the figures for the IC50 in assay [1] and in assay [2] were 1630 nM and under 10 nM, respectively.

For `O=C(c1cccc(Oc2c([N+](=O)[O-])ccc3c2CCC3OP(=O)(N2CC2)N2CC2)c1)N1CCC(F)(F)CC1` (stereo not drawn) [Example 103], the IC50 in assay [1] is 811 nM; in assay [2] (Homo sapiens, NCI-H460, 72 h) it was under 10 nM.

Regarding `C[C@@H]1CN1P(=O)(OCc1c(F)c(F)c(OCc2ccc([N+](=O)[O-])c(Oc3cccc(C(=O)N(C)C)c3)c2)c(F)c1F)N1C[C@H]1C` (stereo partly drawn) [Example 13], the IC50 in assay [1] was 195 nM; in assay [2] (Homo sapiens, NCI-H460, 72 h), under 10 nM.

For the compound `C[C@H](OP(=O)(N1CC1)N1CC1)c1cc2cc(Oc3cccc(C(=O)N4CCC(F)(F)C4)c3)c([N+](=O)[O-])cc2o1` [Example 558], the IC50 in assay [1] was 3960 nM; in assay [2] it was 10 to 50 nM.

Regarding `O=[N+]([O-])c1ccc2c(c1Oc1ccc(-c3ccc(F)cn3)c(F)c1)CC[C@@H]2OP(=O)(N1CC1)N1CC1` [Example 275], the IC50 in assay [1] is 1350 nM; in assay [2] (Homo sapiens, NCI-H460, 72 h), under 10 nM.

Take `CS(=O)(=O)c1ccc(Oc2c([N+](=O)[O-])ccc3c2CCC3OP(=O)(N2CC2)N2CC2)cc1` (stereo not drawn) [Example 506]: the half-maximal inhibitory concentration (IC50) was 625 nM in assay [1] and under 10 nM in assay [2].

On to `O=C(NC1CC1)c1ccc(Oc2cc3c(cc2[N+](=O)[O-])CCC3OP(=O)(N2CC2)N2CC2)cc1` (single isomer, unassigned) [Example 173], for which the figures for the IC50 in assay [1] and in assay [2] were 2980 nM and under 10 nM, respectively.

Turning to `Cc1cnc(-c2cccc(Oc3c([N+](=O)[O-])ccc4c3CC[C@@H]4OP(=O)(N3CC3)N3CC3)c2)s1` [Example 342], the IC50 in assay [1] was 4270 nM; in assay [2] (Homo sapiens, NCI-H460, 72 h), 10 to 50 nM.

As to `O=[N+]([O-])c1ccc2c(c1Oc1cccc(OC3CCC3)c1)CC[C@H]2OP(=O)(N1CC1)N1CC1` [Example 464], the results for the IC50 in assay [1] and in assay [2] were 1390 nM and under 10 nM, respectively.

Consider `CC(OP(=O)(N1C[C@@H]1C)N1C[C@@H]1C)c1ccc([N+](=O)[O-])c(Oc2ccc(C(=O)N(C)C)cc2)c1` (stereo partly drawn) [Example 214], for which the values for the IC50 in assay [1] and in assay [2] were 913 nM and under 10 nM, respectively.

For the compound `O=[N+]([O-])c1ccc2c(c1Oc1cccc(-c3cccnc3)c1)CC[C@H]2OP(=O)(N1CC1)N1CC1` [Example 309], the IC50 is 3070 nM in assay [1] and 10 to 50 nM in assay [2] (Homo sapiens, NCI-H460, 72 h).

Consider `CC1(C)CN(c2cccc(Oc3c([N+](=O)[O-])ccc4c3CCC4OP(=O)(N3CC3)N3CC3)c2)C(=O)O1` (racemic) [Example 416], for which the IC50 is 275 nM in assay [1] and under 10 nM in assay [2].

As to `O=C(c1ccc(Oc2cc3c(cc2[N+](=O)[O-])CCC3OP(=O)(N2CC2)N2CC2)cc1)N1CCOCC1` (stereo not drawn) [Example 160], the IC50 in assay [1] is 270 nM; in assay [2] (Homo sapiens, NCI-H460, 72 h), under 10 nM.

As to `O=[N+]([O-])c1ccc2c(c1Oc1cccc(-c3cc(F)nn3CCO)c1)CC[C@@H]2OP(=O)(N1CC1)N1CC1` [Example 372], the IC50 in assay [1] is 332 nM; in assay [2] (Homo sapiens, NCI-H460, 72 h) it was under 10 nM.

Consider `O=[N+]([O-])c1cc2c(cc1Oc1ccc(-c3ccc(F)cn3)c(F)c1)C(OP(=O)(N1CC1)N1CC1)CC2` (stereo not drawn) [Example 142], for which the IC50 was 4130 nM in assay [1] and under 10 nM in assay [2] (Homo sapiens, NCI-H460, 72 h).

Turning to `N#Cc1ccc(-c2ccc(Oc3c([N+](=O)[O-])ccc4c3CCC4OP(=O)(N3CC3)N3CC3)cc2)nc1` (stereo not drawn) [Example 288], the IC50 in assay [1] is 1940 nM; in assay [2] it was under 10 nM.

For the compound `O=[N+]([O-])c1ccc2c(c1Oc1ccc(-c3ccccc3)cc1)CCC2OP(=O)(N1CC1)N1CC1` (single isomer, unassigned) [Example 19], the 50% inhibitory concentration (IC50) in assay [1] is 593 nM; in assay [2] (Homo sapiens, NCI-H460, 72 h), under 10 nM.

Regarding `Cn1cccc(-c2ccc(Oc3c([N+](=O)[O-])ccc4c3CCC4OP(=O)(N3CC3)N3CC3)cc2)c1=O` (stereo not drawn) [Example 48], the IC50 is 1010 nM in assay [1] and at least 100 nM in assay [2].

Regarding `O=C(c1cccc(Oc2c([N+](=O)[O-])ccc3c2CCC3OP(=O)(N2CC2)N2CC2)c1)N1CCC1` (stereo not drawn) [Example 97], the IC50 in assay [1] is 497 nM; in assay [2] (Homo sapiens, NCI-H460, 72 h), under 10 nM.

In general, IC50 refers to the midpoint of a concentration-inhibition curve.
